Test results as given in PubChem BioAssay AID222 (DTP/NCI, 2004).
“And” between values parts separate entries of the source, which are not always exact repeats. Identical values can stand only once. Inconclusive results and toxic doses are left out. Rule for the calls: active = survival T/C of 150% or more; inactive = T/C below 125% in these data.

Tested on: C57BL/6 mice, intracerebral ependymoblastoma, median survival T/C
Test: NCI In Vivo Anticancer Drug Screen. Data for tumor model Ependymoblastoma (intracerebral) in C57BL/6 mice
Conditions: endpoint: median survival time, higher = longer survival
Method: The antitumor activity of compounds was measured in mice bearing transplantable tumors. Survival or tumor size were measured and the results are expressed as the measurement made in the treated group (T) divided by the measurement made in the vehicle treated control group (C). The tumor model used in this assay is Ependymoblastoma (intracerebral) in C57BL/6 mice

[1] = dose: 8.0 mg/kg/injection, schedule: Q01DX005 (ip), vehicle: Klucel (hydroxypropylcellulose) (HPC)
[2] = dose: 16.0 mg/kg/injection, schedule: Q01DX005 (ip), vehicle: Klucel (hydroxypropylcellulose) (HPC)
[3] = dose: 32.0 mg/kg/injection, schedule: Q01DX005 (ip), vehicle: Klucel (hydroxypropylcellulose) (HPC)
[4] = dose: 64.0 mg/kg/injection, schedule: Q01DX005 (ip), vehicle: Klucel (hydroxypropylcellulose) (HPC)
[5] = dose: 8.0 mg/kg/injection, schedule: Q01DX005 (ip), vehicle: saline
[6] = dose: 8.0 mg/kg/injection, schedule: Q01DX005 (ip), vehicle: saline with Tween-80
[7] = dose: 16.0 mg/kg/injection, schedule: Q01DX005 (ip), vehicle: saline with Tween-80

Measured: T/C

COc1cccc2c1C(=O)c1c(O)c3c(c(O)c1C2=O)C[C@@](O)(C(=O)CO)C[C@@H]3OC1CC(N)C(O)C(C)O1 (stereo partly drawn)
inactive: dose: 0.12 mg/kg/injection, schedule: Q01DX001 (ip), vehicle: saline 96 % of control | dose: 0.25 mg/kg/injection, schedule: Q01DX001 (ip), vehicle: saline 86 % of control | dose: 0.25 mg/kg/injection, schedule: Q01DX005 (ip), vehicle: saline 108 % of control | dose: 0.25 mg/kg/injection, schedule: Q01DX009 (ip), vehicle: saline 107 % of control | dose: 0.25 mg/kg/injection, schedule: Q07DX003 (ip), vehicle: saline 106 % of control | dose: 0.25 mg/kg/injection, schedule: Q## X006 (ip), vehicle: saline 100 % of control | dose: 0.5 mg/kg/injection, schedule: Q01DX001 (ip), vehicle: saline 88 % of control | dose: 0.5 mg/kg/injection, schedule: Q01DX005 (ip), vehicle: saline 108 % of control | dose: 0.5 mg/kg/injection, schedule: Q01DX009 (ip), vehicle: saline 103 % of control | dose: 0.5 mg/kg/injection, schedule: Q## X006 (ip), vehicle: saline 119 % of control | dose: 0.5 mg/kg/injection, schedule: Q#A X002 (ip), vehicle: saline 105 % of control | dose: 1.0 mg/kg/injection, schedule: Q01DX001 (ip), vehicle: saline 96 % of control (2×) and 100 % of control | dose: 1.0 mg/kg/injection, schedule: Q01DX005 (ip), vehicle: saline 110 % of control | dose: 1.0 mg/kg/injection, schedule: Q01DX005 (oral), vehicle: saline 100 % of control | dose: 1.0 mg/kg/injection, schedule: Q07DX003 (ip), vehicle: saline 96 % of control | dose: 1.0 mg/kg/injection, schedule: Q## X006 (ip), vehicle: saline 110 % of control | dose: 1.0 mg/kg/injection, schedule: Q#A X002 (ip), vehicle: saline 97 % of control | dose: 2.0 mg/kg/injection, schedule: Q01DX001 (ip), vehicle: saline 104 % of control and 106 % of control and 111 % of control | dose: 2.0 mg/kg/injection, schedule: Q01DX005 (ip), vehicle: saline 103 % of control | dose: 2.0 mg/kg/injection, schedule: Q07DX003 (ip), vehicle: saline 101 % of control | dose: 2.0 mg/kg/injection, schedule: Q## X006 (ip), vehicle: saline 119 % of control | dose: 2.0 mg/kg/injection, schedule: Q#A X002 (ip), vehicle: saline 93 % of control | dose: 4.0 mg/kg/injection, schedule: Q01DX001 (oral), vehicle: saline 101 % of control and 109 % of control | dose: 4.0 mg/kg/injection, schedule: Q01DX005 (oral), vehicle: saline 94 % of control | dose: 4.0 mg/kg/injection, schedule: Q#A X002 (ip), vehicle: saline 101 % of control and 108 % of control | dose: 8.0 mg/kg/injection, schedule: Q01DX001 (oral), vehicle: saline 92 % of control and 97 % of control | dose: 8.0 mg/kg/injection, schedule: Q01DX005 (oral), vehicle: saline 100 % of control | dose: 8.0 mg/kg/injection, schedule: Q#A X002 (ip), vehicle: saline 97 % of control | dose: 16.0 mg/kg/injection, schedule: Q01DX001 (ip), vehicle: saline 101 % of control | dose: 16.0 mg/kg/injection, schedule: Q01DX001 (oral), vehicle: saline 96 % of control and 98 % of control and 106 % of control | dose: 16.0 mg/kg/injection, schedule: Q#A X002 (ip), vehicle: saline 89 % of control | dose: 32.0 mg/kg/injection, schedule: Q01DX001 (ip), vehicle: saline 100 % of control | dose: 32.0 mg/kg/injection, schedule: Q01DX001 (oral), vehicle: saline 89 % of control and 92 % of control and 109 % of control | dose: 32.0 mg/kg/injection, schedule: Q#A X002 (ip), vehicle: saline 86 % of control | dose: 64.0 mg/kg/injection, schedule: Q01DX001 (oral), vehicle: saline 103 % of control and 107 % of control and 86 % of control | dose: 64.0 mg/kg/injection, schedule: Q#A X002 (ip), vehicle: saline 88 % of control | dose: 128.0 mg/kg/injection, schedule: Q01DX001 (ip), vehicle: saline 88 % of control | dose: 128.0 mg/kg/injection, schedule: Q01DX001 (oral), vehicle: saline 93 % of control and 103 % of control and 107 % of control | dose: 128.0 mg/kg/injection, schedule: Q#A X002 (ip), vehicle: saline 86 % of control | dose: 256.0 mg/kg/injection, schedule: Q01DX001 (oral), vehicle: saline 103 % of control and 111 % of control

COC1C(O)C(C)OC(OC2C(Oc3cccc4c(O)c5c(=O)oc6ccc(C)c7c(=O)oc(c34)c5c67)OC(C)C(O)C2O)C1O (stereo not drawn)
inactive: dose: 2.0 mg/kg/injection, schedule: Q01DX005 (ip), vehicle: Klucel (hydroxypropylcellulose) (HPC) 105 % of control and 122 % of control and 124 % of control | dose: 4.0 mg/kg/injection, schedule: Q01DX005 (ip), vehicle: Klucel (hydroxypropylcellulose) (HPC) 95 % of control and 106 % of control | [1] 90 % of control and 111 % of control and 122 % of control | [2] 99 % of control and 113 % of control and 124 % of control | [3] 97 % of control and 103 % of control | [4] 99 % of control and 105 % of control and 107 % of control

CCN(CC)c1ccc2cc3ccc(=[N+](CC)CC)cc-3oc2c1
inactive: dose: 4.0 mg/kg/injection, schedule: Q01DX005 (ip), vehicle: saline 100 % of control | [5] 107 % of control

Cc1[nH]c(=O)[nH]c(=O)c1N(CCF)CCCl
inactive: dose: 2.0 mg/kg/injection, schedule: Q01DX005 (ip), vehicle: saline with Tween-80 96 % of control and 104 % of control | dose: 4.0 mg/kg/injection, schedule: Q01DX005 (ip), vehicle: saline with Tween-80 97 % of control and 105 % of control | dose: 4.0 mg/kg/injection, schedule: Q## X006 (ip), vehicle: Klucel (hydroxypropylcellulose) (HPC) 111 % of control | [6] 97 % of control and 106 % of control | dose: 8.0 mg/kg/injection, schedule: Q## X006 (ip), vehicle: Klucel (hydroxypropylcellulose) (HPC) 106 % of control | dose: 8.0 mg/kg/injection, schedule: Q#A X002 (ip), vehicle: Klucel (hydroxypropylcellulose) (HPC) 101 % of control | dose: 16.0 mg/kg/injection, schedule: Q01DX001 (ip), vehicle: Klucel (hydroxypropylcellulose) (HPC) 93 % of control and 102 % of control | [7] 108 % of control and 109 % of control | dose: 16.0 mg/kg/injection, schedule: Q01DX005 (oral), vehicle: Klucel (hydroxypropylcellulose) (HPC) 111 % of control | dose: 16.0 mg/kg/injection, schedule: Q#A X002 (ip), vehicle: Klucel (hydroxypropylcellulose) (HPC) 99 % of control | dose: 32.0 mg/kg/injection, schedule: Q01DX001 (ip), vehicle: Klucel (hydroxypropylcellulose) (HPC) 92 % of control and 101 % of control and 105 % of control | dose: 32.0 mg/kg/injection, schedule: Q01DX005 (oral), vehicle: Klucel (hydroxypropylcellulose) (HPC) 94 % of control | dose: 32.0 mg/kg/injection, schedule: Q#A X002 (ip), vehicle: Klucel (hydroxypropylcellulose) (HPC) 111 % of control | dose: 64.0 mg/kg/injection, schedule: Q01DX001 (ip), vehicle: Klucel (hydroxypropylcellulose) (HPC) 101 % of control and 114 % of control | dose: 64.0 mg/kg/injection, schedule: Q01DX001 (oral), vehicle: Klucel (hydroxypropylcellulose) (HPC) 96 % of control and 107 % of control and 111 % of control | dose: 128.0 mg/kg/injection, schedule: Q01DX001 (ip), vehicle: Klucel (hydroxypropylcellulose) (HPC) 87 % of control | dose: 128.0 mg/kg/injection, schedule: Q01DX001 (oral), vehicle: Klucel (hydroxypropylcellulose) (HPC) 90 % of control and 111 % of control | dose: 256.0 mg/kg/injection, schedule: Q01DX001 (oral), vehicle: Klucel (hydroxypropylcellulose) (HPC) 107 % of control and 86 % of control | dose: 512.0 mg/kg/injection, schedule: Q01DX001 (oral), vehicle: Klucel (hydroxypropylcellulose) (HPC) 115 % of control

O=c1[nH]c(=O)n([C@H]2CCCO2)cc1F
inactive: [1] 97 % of control and 98 % of control | [6] 90 % of control and 97 % of control | [5] 101 % of control and 111 % of control | [2] 100 % of control and 106 % of control and 112 % of control | [7] 103 % of control and 105 % of control | dose: 16.0 mg/kg/injection, schedule: Q01DX005 (ip), vehicle: saline 100 % of control and 110 % of control | [3] 98 % of control and 109 % of control and 114 % of control | dose: 32.0 mg/kg/injection, schedule: Q01DX005 (ip), vehicle: saline with Tween-80 102 % of control and 106 % of control | dose: 32.0 mg/kg/injection, schedule: Q01DX005 (ip), vehicle: saline 102 % of control and 109 % of control (2×) | [4] 100 % of control and 103 % of control and 108 % of control | dose: 64.0 mg/kg/injection, schedule: Q01DX005 (ip), vehicle: saline with Tween-80 104 % of control and 120 % of control | dose: 64.0 mg/kg/injection, schedule: Q01DX005 (ip), vehicle: saline 98 % of control and 111 % of control (2×) | dose: 128.0 mg/kg/injection, schedule: Q01DX005 (ip), vehicle: Klucel (hydroxypropylcellulose) (HPC) 112 % of control and 117 % of control | dose: 128.0 mg/kg/injection, schedule: Q01DX005 (ip), vehicle: saline with Tween-80 111 % of control and 114 % of control | dose: 128.0 mg/kg/injection, schedule: Q01DX005 (ip), vehicle: saline 102 % of control and 113 % of control and 119 % of control | dose: 256.0 mg/kg/injection, schedule: Q01DX005 (ip), vehicle: saline 106 % of control and 121 % of control
